# “Also recorded” adds a separate entry of the source.
# What was measured:
# [1] = target: T1, ROCK1 human recombinant enzyme (Homo sapiens, UniProt Q13464); experiment: ROCK1 inhibition assay (Eurofins-Cerep, phosphorylation of Ulight-RRRSLLE substrate); type: biochemical; conditions: for inhibition at 3 µM: screening concentration 3 μM, average of two experiments; for IC50: human recombinant ROCK1, five-point assay, mean of two experiments
# T1 construct: purchased EUROFINS-CEREP France (contract assay, study numbers 100033685 and 100040481); host or cells: Sf9 insect cells
# T1 sequence (Q13464 whole entry): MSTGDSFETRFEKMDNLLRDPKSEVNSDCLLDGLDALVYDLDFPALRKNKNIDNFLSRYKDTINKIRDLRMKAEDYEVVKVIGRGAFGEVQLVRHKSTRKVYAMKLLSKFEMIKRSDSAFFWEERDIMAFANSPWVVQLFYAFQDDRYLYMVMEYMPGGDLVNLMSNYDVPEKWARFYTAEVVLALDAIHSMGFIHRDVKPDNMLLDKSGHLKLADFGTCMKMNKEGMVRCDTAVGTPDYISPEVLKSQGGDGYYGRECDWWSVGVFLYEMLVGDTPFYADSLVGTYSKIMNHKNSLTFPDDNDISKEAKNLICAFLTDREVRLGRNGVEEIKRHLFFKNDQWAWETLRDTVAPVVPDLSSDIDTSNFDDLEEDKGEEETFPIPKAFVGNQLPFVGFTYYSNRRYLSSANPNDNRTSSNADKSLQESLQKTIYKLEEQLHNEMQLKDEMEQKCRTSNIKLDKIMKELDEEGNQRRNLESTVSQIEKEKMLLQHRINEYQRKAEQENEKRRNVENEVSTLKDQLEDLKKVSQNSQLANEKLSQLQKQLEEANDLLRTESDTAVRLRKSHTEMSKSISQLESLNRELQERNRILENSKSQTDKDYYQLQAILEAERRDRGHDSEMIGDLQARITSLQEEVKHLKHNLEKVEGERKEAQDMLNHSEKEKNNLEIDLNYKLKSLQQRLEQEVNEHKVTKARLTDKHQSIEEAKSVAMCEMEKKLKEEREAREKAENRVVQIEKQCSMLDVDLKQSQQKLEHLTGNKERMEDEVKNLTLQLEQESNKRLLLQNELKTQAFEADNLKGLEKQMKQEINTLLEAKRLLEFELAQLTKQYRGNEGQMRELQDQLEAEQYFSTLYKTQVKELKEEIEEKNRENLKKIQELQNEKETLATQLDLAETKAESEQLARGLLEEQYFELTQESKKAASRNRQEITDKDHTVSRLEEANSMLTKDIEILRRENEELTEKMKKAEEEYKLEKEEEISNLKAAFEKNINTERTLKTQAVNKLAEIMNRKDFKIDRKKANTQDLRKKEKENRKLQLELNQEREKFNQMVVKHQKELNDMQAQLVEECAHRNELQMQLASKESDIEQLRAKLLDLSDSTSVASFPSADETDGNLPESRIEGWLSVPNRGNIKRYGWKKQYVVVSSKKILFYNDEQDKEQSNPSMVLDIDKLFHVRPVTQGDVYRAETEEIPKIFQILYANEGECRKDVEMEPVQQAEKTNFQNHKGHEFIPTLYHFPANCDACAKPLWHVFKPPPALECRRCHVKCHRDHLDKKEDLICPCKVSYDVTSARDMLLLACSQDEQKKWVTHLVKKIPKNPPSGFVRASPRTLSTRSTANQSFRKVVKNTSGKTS
# Description: (§1) The analysis was performed using software developed at Cerep (Hill software) and GraphPad Prism® 5.0 (GraphPad Software, Inc., San Diego, CA) and validated through comparison with results generated using the SigmaPlot 4.0 software.
# (§2) Prior to this assay, we evaluated the solubility of these compounds in water (buffer pH 7.4) to ensure that the inhibition percentages were not influenced by the precipitation of the compounds under test conditions.
# [2] = target: T2, ROCK2 human recombinant enzyme (Homo sapiens, UniProt O75116); experiment: ROCK2 inhibition assay (Eurofins-Cerep, phosphorylation of Ulight-RRRSLLE substrate); type: biochemical; conditions: for inhibition at 3 µM: screening concentration 3 μM, average of two experiments; for IC50: human recombinant ROCK2, five-point assay, mean of two experiments
# T2 construct: purchased EUROFINS-CEREP France (contract assay, study numbers 100033685 and 100040481); host or cells: Sf21 insect cells
# T2 sequence (O75116 1-543 limits assumed): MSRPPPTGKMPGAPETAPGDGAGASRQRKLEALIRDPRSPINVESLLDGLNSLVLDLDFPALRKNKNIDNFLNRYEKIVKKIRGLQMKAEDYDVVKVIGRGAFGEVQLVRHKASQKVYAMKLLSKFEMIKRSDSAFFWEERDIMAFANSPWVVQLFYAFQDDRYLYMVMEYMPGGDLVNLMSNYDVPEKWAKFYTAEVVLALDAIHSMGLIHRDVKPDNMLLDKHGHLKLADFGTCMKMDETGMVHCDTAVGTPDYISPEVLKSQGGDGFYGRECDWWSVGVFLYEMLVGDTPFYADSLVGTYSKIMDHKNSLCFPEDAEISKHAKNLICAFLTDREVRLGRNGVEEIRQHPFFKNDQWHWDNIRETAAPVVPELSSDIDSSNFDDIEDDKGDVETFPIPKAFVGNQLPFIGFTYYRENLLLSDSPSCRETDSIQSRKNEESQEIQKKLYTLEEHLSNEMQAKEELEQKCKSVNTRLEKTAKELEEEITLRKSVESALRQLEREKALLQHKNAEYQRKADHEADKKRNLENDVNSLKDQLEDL
# Description: as §1, §2
# [3] = Water solubility assay (UV spectrophotometric method); type: physicochemical; conditions: aqueous buffer, thermodynamic from solid, water (buffer pH 7.4), stirring 4 h at 37 °C
# Description: The solubility assay was performed considering the absorptivity of compounds under ultraviolet spectroscopy as described by Schneider et al.[20] Assay wavelength was determined through λmax characteristic of each compound. Saturated aqueous solutions were prepared (0.8–1.0 mg/mL) and kept under stirring for 4 h at 37 °C. The supernatant was filtered in […] filters and transferred to a quartz cuvette (10 mm) for spectra acquisition. Solubility was determined by linear regression used as Excel graph plots, solutions were prepared by dilutions of the original solution in methanol. Data were collected in triplicate and the mean values were used to create the graph plots. The correlation coefficient (R^2) values were between 0.9982 and 1.
# The N-sulphonylhydrazone derivatives 5a–h were evaluated for their ability to inhibit both ROCK1 and ROCK2 isoforms by measuring the phosphorylation of the Ulight-RRRSLLE substrate using human recombinant enzymes expressed in Sf9[23] and Sf21^24 cells, respectively. Prior to this assay, we evaluated the solubility of these compounds in water (buffer pH 7.4) to ensure that the inhibition percentages were not influenced by the precipitation of the compounds under test conditions. The enzymatic assay was initially performed at a screening concentration of 3 μM, which is capable of guaranteeing the solubility of most of the compounds, and the obtained results are shown in Table 2.
# IKK-β = target: T3, IKK-β (Homo sapiens, UniProt O14920); experiment: IKK-β inhibition screening; type: biochemical; conditions: screening concentration of 10 μM; data not shown
# T3 sequence (O14920 1-756): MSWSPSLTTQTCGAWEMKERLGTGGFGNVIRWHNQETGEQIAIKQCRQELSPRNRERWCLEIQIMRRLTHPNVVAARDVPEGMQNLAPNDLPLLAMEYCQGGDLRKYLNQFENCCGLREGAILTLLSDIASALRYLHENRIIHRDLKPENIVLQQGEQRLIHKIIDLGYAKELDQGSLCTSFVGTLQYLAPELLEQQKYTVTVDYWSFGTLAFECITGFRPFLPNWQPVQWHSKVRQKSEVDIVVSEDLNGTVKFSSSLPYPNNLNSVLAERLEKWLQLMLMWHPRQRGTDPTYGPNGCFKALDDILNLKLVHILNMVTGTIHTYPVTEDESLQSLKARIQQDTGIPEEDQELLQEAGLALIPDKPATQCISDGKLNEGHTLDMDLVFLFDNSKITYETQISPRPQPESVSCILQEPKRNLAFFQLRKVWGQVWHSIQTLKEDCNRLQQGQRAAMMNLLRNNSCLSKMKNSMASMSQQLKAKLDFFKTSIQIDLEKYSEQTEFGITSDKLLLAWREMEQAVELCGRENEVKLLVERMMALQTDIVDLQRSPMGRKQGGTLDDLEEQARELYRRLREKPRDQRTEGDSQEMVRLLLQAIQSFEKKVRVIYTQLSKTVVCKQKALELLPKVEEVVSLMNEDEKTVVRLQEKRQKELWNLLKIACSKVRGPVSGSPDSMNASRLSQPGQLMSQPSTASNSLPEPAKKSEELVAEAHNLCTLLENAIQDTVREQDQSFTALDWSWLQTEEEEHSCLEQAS
# Description: Furthermore, considering that 2 (LASSBio-1524) was used in the structural design of this new family of ROCK inhibitors we also investigated the ability of 5b (LASSBio-2020) and 11 (LASSBio-2065) to inhibit IKK-β.
# MDA-MB 231 cells [4] = experiment: Cell-based scratch assay (cell migration); set-up: species or system human; conditions: 10 or 30 μM, 24 h
# Description: (§3) The human mammary gland/breast epithelial cell line MDA-MB 231 was obtained from the American Type Culture Collection (ATCC® HTB-26™) and this use was approved by the Ethics Committee for Animal Care and Use in Scientific Research from the Federal University of Rio de Janeiro. Cells were routinely grown in RPMI medium containing 10% foetal bovine serum (FBS), 1% L-glutamine and 1% penicillin-streptomycin, in a humidified 5% CO2 atmosphere at 37 °C. Cells were cultured up to 70–100% confluence and then some cultures were treated with the compounds at different concentrations for 24 or 48 h. All cell culture reagents were purchased from Invitrogen (São Paulo, Brazil).
# Cells were cultured in 24-well culture plates for 24 h up to 90–100% confluence. Scratched wound lines were created with the help of a 200 μl micropipette tip. […] Images were acquired with an Olympus DP71 digital camera (Olympus, Japan) and the wound area was quantified using Fiji software (based on ImageJ, http://imageJ.nih.gov/ij/) from three different experiments.
# The functions of Rho-kinase include the regulation of cellular contraction, motility, morphology, polarity, division, and gene expression. Therefore, we performed a cell-based scratch assay followed by the quantification of the wounded area to analyse whether compounds 5b (LASSBio-2020) and 11 (LASSBio-2065) altered cell migration. […]
# [5] = Chemical stability study (pH 2.0 and pH 7.4 buffers); type: physicochemical; conditions: 37 °C
# Description: Two microliters ([…]) of a concentrated solution of the compound under examination (40 mM stock solution solubilized in DMSO) and 248 μL of acid (0.2 M potassium chloride and 0.2 M HCl; pH 2.0) or neutral (phosphate dibasic, pH 7.4) buffer were added to a 2 ml Eppendorf microtube. After vortexing, the mixture was placed in a water bath at 37 °C under vigorous stirring for 0, 30, 60, 120, and 240 min. After each reaction, 248 μL of basic buffer (phosphate buffer, pH 8.4) was added to neutralize the pH of the medium in the experiments using acidic buffer. The compound was extracted using 1 ml of acetonitrile followed by vigorous vortexing and freezing of the aqueous phase (−10 °C). The organic phase was separated, filtered, and analysed using an HPLC-PDA (acetonitrile/water […], 0.05% of TFA).
# Due to the possible chemical instability of the imine functional group present in the N-sulphonylhydrazone framework, the stability profiles of compounds 5b (LASSBio-2020) and 11 (LASSBio-2065) were determined. The study was conducted under two conditions, pH 2.0 and pH 7.4, to mimic the acidic stomach and the neutral plasma environments, respectively. The compounds were examined in the presence of acid (pH 2) and neutral (pH 7.4) buffers with stirring for 240 min at a controlled temperature (37 °C).
# MDA-MB 231 cells [6] = experiment: Plasma membrane integrity assay (LDH); type: cell-based, human; conditions: 0.1 to 30 µM, 24 and 48 h
# Description: as §3
# To measure plasma membrane integrity, we assayed serum lactate dehydrogenase (LDH) levels and calculated percentages of LDH release to the medium. LDH activity was measured spectrophotometrically using a commercial kit (Doles, Goiás, Brazil). […] Then, 10 μl of NAD were added and absorbance intensities were measured in a microplate reader (FlexStation® 3 Reader, Molecular Devices) at 490 nm. The percentage of LDH release was calculated by ([LDH] sample ×100)/total [LDH]. […]
# We also analysed the plasma membrane integrity by measuring the serum lactate dehydrogenase (LDH) levels in the culture medium to confirm the cell viability data. […]
# [7] = ROCK inhibition assays, 1 to 50 µM
melting point,inhibition at 3 µM [1],inhibition at 3 µM [2],solubility at 4 h [3],SMILES,further results
165 °C,4.1%,0.6%,5.4 µM,"CN(C)c1ccc(/C=N/NS(=O)(=O)c2cccc3cnccc23)cc1 [Compound 5a, (E)-N′-(4-(dimethylamino)benzylidene)isoquinoline-5-sulphonohydrazide]",–
168 °C,1.1%,8.1%,26 µM,"O=[N+]([O-])c1ccc(/C=N/NS(=O)(=O)c2cccc3cnccc23)cc1 [Compound 5c, (E)-N′-(4-nitrobenzylidene)isoquinoline-5-sulphonohydrazide]",–
168 °C,4.5%,7.6%,> 64 µM,"O=S(=O)(N/N=C/c1cccnc1)c1cccc2cnccc12 [Compound 5d, (E)-N′-(pyridin-3-ylmethylene)isoquinoline-5-sulphonohydrazide]",–
173 °C,4.6%,-9.1%,4.3 µM,"CC(=O)Nc1ccc(/C=N/NS(=O)(=O)c2cccc3cnccc23)cc1 [Compound 5e, (E)-N-(4-((2-(isoquinolin-5-ylsulphonyl)hydrazono)methyl)phenyl)acetamide]",–
> 250 °C,2.7%,7.3%,58 µM,"O=S(=O)(N/N=C/c1ccc(B(O)O)cc1)c1cccc2cnccc12 [Compound 5f, (E)-(4-((2-(isoquinolin-5-ylsulphonyl)hydrazono)methyl)phenyl)boronic acid]",–
166 °C,-1.1%,2.4%,< 0.5 µM,"O=S(=O)(N/N=C/c1ccc(-c2ccccc2)cc1)c1cccc2cnccc12 [Compound 5g, (E)-N′-([1,1'-biphenyl]-4-ylmethylene)isoquinoline-5-sulphonohydrazide]",–
186 °C,6.9%,3.9%,> 84.5 µM,"Cl.O=S(=O)(N/N=C/C1CCNCC1)c1cccc2cnccc12 [Compound 5h, (E)-N′-(piperidin-4-ylmethylene)isoquinoline-5-sulphonohydrazide hydrochloride]",–
–,–,–,–,"O=C(N/N=C/c1ccccc1)c1cccc2cnccc12 [Compound 10, (E)-N′-benzylidene isoquinoline-5-carbohydrazide]","ROCK1 inhibition (result in words) [1, 7]: completely inactive; IC50 ([1]; 1 to 50 µM): > 50 µM; ROCK2 inhibition (result in words) [2, 7]: completely inactive; IC50 ([2]; 1 to 50 µM): > 50 µM"
108 °C,–,–,–,"CN(/N=C/c1ccccc1)S(=O)(=O)c1cccc2cnccc12 [Compound 11, (E)-N′-benzylidene-N-methylisoquinoline-5-sulphonohydrazide]","IKK-β inhibition (result in words) (IKK-β): none of these N-sulphonylhydrazone derivatives was able to inhibit IKK-β; effect on cell migration (result in words) (MDA-MB 231 cells [4]): inhibited MDA-MB 231 cell migration; also recorded: effective at inhibiting cell migration; recovery percentage under acidic conditions ([5]; pH 2, after 30 min of incubation): 88%; degradation in neutral medium ([5]; pH 7.4, after 4 h): less than 20%; decrease in the IC50 for ROCK1 relative to 5b ([1]; N-methylated 11 versus 5b): approximately 4 fold; IC50 ([1]; 1 to 50 µM): 3.1 µM; decrease in the IC50 for ROCK2 relative to 5b ([2]; N-methylated 11 versus 5b): ~1.8 fold; IC50 ([2]; 1 to 50 µM): 3.8 µM; LDH levels in culture medium / cytotoxicity in LDH assay (result in words) (MDA-MB 231 cells [6]): not altered"
